Test results: patent US10556863B1, “Crystalline form of (R)-4-hydroxy-2-oxo-1-pyrrolidineacetamide, preparation method therefor and use thereof” (CHONGQING RUNZE PHARMACEUTICAL COMPANY LIMITED, priority 2016, dated 2020)
Entries after “also recorded” stand apart in the source; their conditions may differ.

What was measured:
[1] = variable-temperature powder X-ray diffraction, crystal form stability at high temperatures; assay type: physicochemical; details: heated from 30° C. to 80° C.; powder X-ray diffraction at 35, 45, 55, 65 and 75° C.
Experimental: The crystalline form I of (R)-4-hydroxy-2-oxo-1-pyrrolidineacetamide of the invention was placed on a single crystal silicon sample stage, heated from 30° C. to 80° C., and subjected to powder X-ray diffraction measurement at 35° C., 45° C., 55° C., 65° C. and 75° C., respectively. […] It can be seen that the crystalline form I of (R)-4-hydroxy-2-oxo-1-pyrrolidineacetamide of the invention has good stability at high temperatures. When the crystalline form I of (R)-4-hydroxy-2-oxo-1-pyrrolidineacetamide of the invention is used for storage or formulation processing, the requirements on processing and storage temperatures are reduced.

[2] = solubility in water; assay type: physicochemical

NC(=O)CN1C[C@H](O)CC1=O [crystalline form I, (R)-4-hydroxy-2-oxo-1-pyrrolidineacetamide]
crystal transformation on heating (stability at high temperatures) [1]: does not show a phenomenon of crystal transformation; also recorded: does not exhibit crystal transformation phenomenon | solubility [2]: ≥ 90 mg/mL
